Laboratory results taken from US10752591B2, “18-20 member bi-polycyclic compounds” (Haro Pharmaceutical Inc., priority 2014, dated 2020).

What was measured:
[1] = system: MDA-MB-231 breast cancer cells; experiment: cytotoxicity, cell survival (CellTiterGlo) in MDA-MB-231; format: cell-based; conditions: MDA-MB-231 cells
Description: The cytotoxicity of compounds was examined and directly compared to compound 17, by measuring cell survival of clonal tumor cell lines IMR-32, BE2C (neuroblastoma), as well as MDA-MB-231, BT20, HCC-38 (Basal) and MCF7 (luminal) breast cancer cells (ATCC). Cells were cultured in phenol red-free RPMI medium supplemented with 10% FBS and 1 mM Ala-Glu. Typically, 10,000-20,000 cells/well were plated in a 96 well plate (Costar 3197). Cells were exposed to compounds or vehicle (1% DMSO final). Cells were maintained in the presence of compound for four or five days. Media and compounds were renewed every 48 hours. Cell survival was measured using the luminescence CellTiterGlo kit (Promega Corporation) and expressed as relative light unit as fold over DMSO.

[2] = system: RAR; experiment: RAR-mediated transcription, RARE-tk luciferase reporter in MCF7 cells; format: cell-based
Excerpt: The effect of various compounds of the invention on RAR-mediated transcription in MCF7 breast cancer cells was examined by measuring their effect on the transcription of a luciferase reporter gene under the control of a TK promoter placed downstream of a RAR response element. In addition, the effect of the compounds on the closely related RXR-mediated transcription was examined by measuring their effect on the transcription of a luciferase reporter gene under the control of a TK promoter placed downstream of a RXR response element.
Typically, 10,000 cells were plated in 96 wells plates in phenol red-free RPMI medium supplemented with 10% charcoal-stripped Fetal Bovine Serum. After 24 hours, cells were transfected with 0.1 μg of luciferase reporter plasmid and 0.01 μg of a reporter plasmid expressing renilla luciferase (RLuc) gene under the control of a SV40 promoter, using Fugene 6 transfection reagent (0.5 μl/well Promega Corporation). Cells were treated in triplicate with compounds or vehicle (DMSO) for 24 hours. Luciferase and renilla luciferase activities were measured using Dual-Glo reagent (Promega Corporation). Luciferase activity was normalized in each well for renilla activity.

[3] = aqueous solubility; format: physicochemical
[4] = system: Lys40 acetylated alpha tubulin; experiment: intracellular acetylation of alpha-tubulin in BE-2C cells; format: cell-based
Description: The effect of certain compounds on intracellular acetylation of target proteins was tested in high risk neuroblastoma cells, BE-2C and IMR-32 cells.
BE-2C cells were grown to confluence in phenol-red-free RPMI media supplemented with 10% FBS and 2.5 mM Ala-Glu. […] Total and Lys 40 acetylated alpha tubulin were detected using specific antibodies.
Beta actin, total and Lys382 acetylated p53, and Lys40 acetylated alpha, and total tubulin were detected using antibodies (Cell Signaling #8557, #2524 #2525, #12152 and #2144 respectively) using manufacturer recommended conditions.

[5] = molecular target: purified recombinant human HDAC-1 (Homo sapiens, UniProt Q13547); experiment: HDAC-1 enzymatic inhibition (AMC fluorogenic peptide deacetylation); format: biochemical; conditions: up to
purified recombinant human HDAC-1, sequence (Q13547 whole entry): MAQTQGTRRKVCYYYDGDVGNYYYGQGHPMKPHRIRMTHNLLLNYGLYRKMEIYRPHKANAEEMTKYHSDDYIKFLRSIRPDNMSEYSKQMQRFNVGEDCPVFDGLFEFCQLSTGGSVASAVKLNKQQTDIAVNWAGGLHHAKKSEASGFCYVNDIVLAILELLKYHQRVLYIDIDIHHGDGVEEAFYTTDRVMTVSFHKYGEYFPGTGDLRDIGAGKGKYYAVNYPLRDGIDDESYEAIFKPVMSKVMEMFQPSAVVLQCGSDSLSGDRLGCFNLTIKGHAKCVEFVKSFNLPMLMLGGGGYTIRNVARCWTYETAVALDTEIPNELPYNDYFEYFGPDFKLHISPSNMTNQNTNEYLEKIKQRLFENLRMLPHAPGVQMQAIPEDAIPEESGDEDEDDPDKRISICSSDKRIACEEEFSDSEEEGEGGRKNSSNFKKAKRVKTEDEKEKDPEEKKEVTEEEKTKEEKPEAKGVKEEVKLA
Description: (§1) The effect of compounds on the enzymatic activity of purified recombinant human HDAC-1, -2, -3, -6, and -8 activity and of purified rat liver HDAC was examined by measuring the deacetylation of synthetic peptides in various preparations of HDACs. HDAC assays were performed using a two-step enzymatic reaction where enzyme activity is correlated to the release of […] (AMC). AMC fluorescence is measured in a fluorescent plate reading using λex380 nm and λen440 nm.
(§2) The reaction was allowed to proceed for 40 min at 37° C., after which developer solution (0.5% trypsin, 10 μM trichostatin A (TSA)) was added to obtain a final concentration of 0.1% trypsin, 2 μM TSA. After 30 minutes at room temperature, the amount of free fluorogenic AMC was measured as described above.

[6] = molecular target: T1, purified recombinant human HDAC-8 (Homo sapiens, UniProt Q9BY41); experiment: HDAC-8 enzymatic inhibition (Boc-Lys(Tfa)-AMC / HDAC-Glo I/II); format: biochemical; conditions: relative to compound 17
T1 construct: purchased Cayman Chem 10009465 (AMC assay (so in the source)); 19380 (HDAC-Glo assay)
T1 sequence (Q9BY41 1-377): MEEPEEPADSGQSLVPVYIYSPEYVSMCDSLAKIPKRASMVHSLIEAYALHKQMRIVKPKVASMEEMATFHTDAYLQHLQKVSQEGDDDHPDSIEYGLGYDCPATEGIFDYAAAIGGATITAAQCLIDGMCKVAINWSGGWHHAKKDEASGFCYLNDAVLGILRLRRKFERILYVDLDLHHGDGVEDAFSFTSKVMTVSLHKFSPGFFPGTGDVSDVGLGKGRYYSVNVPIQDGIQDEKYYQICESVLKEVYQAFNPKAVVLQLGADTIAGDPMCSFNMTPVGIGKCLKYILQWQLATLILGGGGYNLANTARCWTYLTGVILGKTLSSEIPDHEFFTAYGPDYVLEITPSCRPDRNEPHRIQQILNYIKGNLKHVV
Description: as §1
HDAC-8, HDAC-9, HDAC-10 and HDAC-11 were assayed using HDAC-Glo™ I/II Kit (Promega Corporation G6421) in a total volume of 110 μl following the manufacturer's instructions.
as §2

[7] = system: C2Cl2 myoblasts; experiment: myotube fusion and degeneration in differentiated C2Cl2 cells left in exhausted media; format: cell-based; conditions: 200 nM pre-treatment
Description: C2Cl2 myoblasts were seeded at 100,000 in 30 mm plate in growth medium (Phenol red-free RMPI containing 10% FBS, Sodium pyruvate and Ala-Glu), and “pre-treated” with DMSO or 200 nM of compounds 13 or 17. At confluence cells were shifted to differentiation media (high glucose DMEM, +0.2% HS+1× Insulin/Transferrin/Selenium (Life Tech 41400-045)+Glutamine, without Pyruvate). Fully differentiated C2Cl2-derived myotubes were left in culture without media renewal for 8 days followed by media renewal and microscopic examination.

## CC1(C)CCC(C)(C)c2cc(-c3cc4cc(C(=O)NO)ccc4[nH]3)ccc21 [Compound 13]
[1]
  cytotoxic potency compared with compound 17, SAHA, Ricolinistat: more potent than compound 17, SAHA or Ricolinistat
[2]
  RARE-dependent luciferase expression: activated
[2]; relative to compound 17
  times more potent than compound 17 in activating RARE-tk_luc reporter: five to ten
[3]
  aqueous solubility: improved
[4]
  alpha tubulin acetylation by LC-MS analysis: lack of increased alpha tubulin acetylation
[4]; 5 μM, 16 hours
  Lysin (K) 40 alpha-Tubulin acetylation: no significant acetylation
[5]
  maximal inhibition of HDAC-1 activity: ~50%
[6]
  times/fold more potent than compound 17 in HDAC-8 inhibition: at least 13
[7]
  cellular fusion after 72 hours differentiation versus DMSO: extensive cellular fusion
  myotube structural atrophy in exhausted media for over 8 days: very little structural alteration
